How the values were obtained:
Assay type in all cases: in vivo
[1] = tested on: foxtail, green (green foxtail, Setaria viridis); experiment: Test E pre-/postemergence: foxtail, green; details: Preemergence, scale 0 to 100
How it was run: (§1)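 Visual injury scored 0–100 (0 no effect, 100 complete control) against controls after 14 to 21 days in greenhouse. Compounds formulated in surfactant-containing non-phytotoxic solvent, applied pre-emergence to seeded silt loam or post-emergence to 1- to 4-leaf plants in peat-based medium.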

soybean (Glycine max) = experiment: Test E pre-/postemergence: soybean; details: scale 0 to 100
How it was run: as §1

[2] = tested on: nightshade (eastern black nightshade, Solanum ptycanthum); experiment: Test E pre-/postemergence: nightshade; details: Preemergence, scale 0 to 100
Description: (§2) Seeds of plant species selected from corn (Zea mays), soybean (Glycine max), velvetleaf (Abutilon theophrasti), lambsquarters (Chenopodium album), poinsettia, wild (wild poinsettia, Euphorbia heterophylla), pigweed, palmer (palmer pigweed, Amaranthus palmeri), waterhemp (common waterhemp, Amaranthus rudis), smartweed (ladysthumb smartweed, Polygonum persicaria), surinam grass (Brachiaria decumbens), crabgrass, large (large crabgrass, Digitaria sanguinalis), crabgrass, Brazil (Brazilian crabgrass, Digitaria horizontalis), panicum, fall (fall panicum, Panicum dichotomiflorum), foxtail, giant (giant foxtail, Setaria faberii), foxtail, green (green foxtail, Setaria viridis), goosegrass (Eleusine indica), johnsongrass (Sorghum halepense), ragweed (common ragweed, Ambrosia elation), barnyardgrass (Echinochloa crus-galli), sandbur (southern sandbur, Cenchrus echinatus), arrowleaf sida (Sida rhombifolia), ryegrass, Italian (Italian ryegrass, Lolium multiflorum), dayflower, (VA) (Virginia dayflower, Commelina virginica), field bindweed (Convolvulus arvensis), cocklebur (common cocklebur, Xanthium strumarium), morningglory (Ipomoea coccinea), nightshade (eastern black nightshade, Solanum ptycanthum), kochia (Kochia scoparia), nutsedge, yellow (yellow nutsedge, Cyperus esculentus) and beggarticks (hairy beggarticks, Bidens pilosa) were planted into a silt loam soil and treated preemergence with test chemicals formulated in a non-phytotoxic solvent mixture which included a surfactant. At the same time, plants selected from these crop and weed species were planted in pots containing a growing medium comprising spaghnum peat moss, vermiculite, wetting agent and starter nutrients and treated with postemergence applications of some of the test chemicals formulated in the same manner. Plants ranged in height from 2 to 18 cm for postemergence treatments (1- to 4-leaf stage).
(§3) Treated plants and controls were maintained in a greenhouse for 14 to 21 days, after which time all species were compared to controls and visually evaluated. Plant response ratings, summarized in Table E, are based on a scale of 0 to 100 where 0 is no effect and 100 is complete control. A dash (-) response means no test result.

[3] = tested on: panicum, fall (fall panicum, Panicum dichotomiflorum); experiment: Test E pre-/postemergence: panicum, fall; details: scale 0 to 100
Description: as §2, §3

[4] = tested on: poinsettia, wild (wild poinsettia, Euphorbia heterophylla); experiment: Test E pre-/postemergence: poinsettia, wild; details: scale 0 to 100
How it was run: as §1

[5] = tested on: crabgrass, large (large crabgrass, Digitaria sanguinalis); experiment: Test E pre-/postemergence: crabgrass, large; details: Preemergence, scale 0 to 100
Description: as §2, §3

[6] = tested on: field bindweed (Convolvulus arvensis); experiment: Test E pre-/postemergence: field bindweed; details: scale 0 to 100
How it was run: as §1

[7] = tested on: pigweed, palmer (palmer pigweed, Amaranthus palmeri); experiment: Test E pre-/postemergence: pigweed, palmer; details: scale 0 to 100
Description: as §2, §3

[8] = tested on: crabgrass, Brazil (Brazilian crabgrass, Digitaria horizontalis); experiment: Test E pre-/postemergence: crabgrass, Brazil; details: scale 0 to 100
Description: as §2, §3

[9] = tested on: dayflower, (VA) (Virginia dayflower, Commelina virginica); experiment: Test E pre-/postemergence: dayflower, (VA); details: scale 0 to 100
Description: as §2, §3

[10] = tested on: goosegrass (Eleusine indica); experiment: Test E pre-/postemergence: goosegrass; details: Preemergence, scale 0 to 100
Description: as §2, §3

[11] = tested on: ryegrass, Italian (Italian ryegrass, Lolium multiflorum); experiment: Test E pre-/postemergence: ryegrass, Italian; details: scale 0 to 100
How it was run: as §1

[12] = tested on: waterhemp (common waterhemp, Amaranthus rudis); experiment: Test E pre-/postemergence: waterhemp; details: scale 0 to 100
How it was run: as §1

SMILES: Cc1nn(-c2ccc(C(F)(F)F)cc2)nc1Oc1ccnc(C(F)(F)F)c1 [Compound 120]
- Plant response rating: Foxtail, Green ([1]; 16 g ai/ha): 15
- Plant response rating: Foxtail, Green ([1]; 31 g ai/ha): 85
- Plant response rating: Foxtail, Green ([1]; 62 g ai/ha): 100
- Plant response rating: Foxtail, Green ([1]; 125 g ai/ha): 100
- Plant response rating: Foxtail, Green ([1]; 250 g ai/ha): 100
- Plant response rating: Soybean (soybean (Glycine max); Postemergence, 8 g ai/ha): 15
- Plant response rating: Soybean (soybean (Glycine max); Postemergence, 16 g ai/ha): 20
- Plant response rating: Soybean (soybean (Glycine max); Postemergence, 31 g ai/ha): 30
- Plant response rating: Soybean (soybean (Glycine max); Postemergence, 62 g ai/ha): 40
- Plant response rating: Soybean (soybean (Glycine max); Postemergence, 125 g ai/ha): 50
- Plant response rating: Soybean (soybean (Glycine max); Preemergence, 16 g ai/ha): 0
- Plant response rating: Soybean (soybean (Glycine max); Preemergence, 31 g ai/ha): 25
- Plant response rating: Soybean (soybean (Glycine max); Preemergence, 62 g ai/ha): 35
- Plant response rating: Soybean (soybean (Glycine max); Preemergence, 125 g ai/ha): 35
- Plant response rating: Soybean (soybean (Glycine max); Preemergence, 250 g ai/ha): 35
- Plant response rating: Nightshade ([2]; 16 g ai/ha): 0
- Plant response rating: Nightshade ([2]; 31 g ai/ha): 0
- Plant response rating: Nightshade ([2]; 62 g ai/ha): 80
- Plant response rating: Nightshade ([2]; 125 g ai/ha): 98
- Plant response rating: Nightshade ([2]; 250 g ai/ha): 100
- Plant response rating: Panicum, Fall ([3]; Postemergence, 8 g ai/ha): 5
- Plant response rating: Panicum, Fall ([3]; Postemergence, 16 g ai/ha): 10
- Plant response rating: Panicum, Fall ([3]; Postemergence, 31 g ai/ha): 10
- Plant response rating: Panicum, Fall ([3]; Postemergence, 62 g ai/ha): 20
- Plant response rating: Panicum, Fall ([3]; Postemergence, 125 g ai/ha): 25
- Plant response rating: Panicum, Fall ([3]; Preemergence, 16 g ai/ha): 95
- Plant response rating: Panicum, Fall ([3]; Preemergence, 31 g ai/ha): 95
- Plant response rating: Panicum, Fall ([3]; Preemergence, 62 g ai/ha): 100
- Plant response rating: Panicum, Fall ([3]; Preemergence, 125 g ai/ha): 100
- Plant response rating: Panicum, Fall ([3]; Preemergence, 250 g ai/ha): 100
- Plant response rating: Poinsettia, Wild ([4]; Postemergence, 8 g ai/ha): 25
- Plant response rating: Poinsettia, Wild ([4]; Postemergence, 16 g ai/ha): 35
- Plant response rating: Poinsettia, Wild ([4]; Postemergence, 31 g ai/ha): 13
- Plant response rating: Poinsettia, Wild ([4]; Postemergence, 62 g ai/ha): 60
- Plant response rating: Poinsettia, Wild ([4]; Postemergence, 125 g ai/ha): 90
- Plant response rating: Poinsettia, Wild ([4]; Preemergence, 16 g ai/ha): 0
- Plant response rating: Poinsettia, Wild ([4]; Preemergence, 31 g ai/ha): 0
- Plant response rating: Poinsettia, Wild ([4]; Preemergence, 62 g ai/ha): 0
- Plant response rating: Poinsettia, Wild ([4]; Preemergence, 125 g ai/ha): 35
- Plant response rating: Poinsettia, Wild ([4]; Preemergence, 250 g ai/ha): 50
- Plant response rating: Crabgrass, Large ([5]; 16 g ai/ha): 75
- Plant response rating: Crabgrass, Large ([5]; 31 g ai/ha): 95
- Plant response rating: Crabgrass, Large ([5]; 62 g ai/ha): 98
- Plant response rating: Crabgrass, Large ([5]; 125 g ai/ha): 100
- Plant response rating: Crabgrass, Large ([5]; 250 g ai/ha): 100
- Plant response rating: Field Bindweed ([6]; Postemergence, 16 g ai/ha): 20
- Plant response rating: Field Bindweed ([6]; Postemergence, 31 g ai/ha): 30
- Plant response rating: Field Bindweed ([6]; Postemergence, 62 g ai/ha): 35
- Plant response rating: Field Bindweed ([6]; Postemergence, 125 g ai/ha): 35
- Plant response rating: Field Bindweed ([6]; Preemergence, 16 g ai/ha): 0
- Plant response rating: Field Bindweed ([6]; Preemergence, 31 g ai/ha): 10
- Plant response rating: Field Bindweed ([6]; Preemergence, 62 g ai/ha): 20
- Plant response rating: Field Bindweed ([6]; Preemergence, 125 g ai/ha): 40
- Plant response rating: Field Bindweed ([6]; Preemergence, 250 g ai/ha): 98
- Plant response rating: Pigweed, Palmer ([7]; Postemergence, 8 g ai/ha): 90
- Plant response rating: Pigweed, Palmer ([7]; Postemergence, 16 g ai/ha): 90
- Plant response rating: Pigweed, Palmer ([7]; Postemergence, 31 g ai/ha): 90
- Plant response rating: Pigweed, Palmer ([7]; Postemergence, 62 g ai/ha): 95
- Plant response rating: Pigweed, Palmer ([7]; Postemergence, 125 g ai/ha): 100
- Plant response rating: Pigweed, Palmer ([7]; Preemergence, 16 g ai/ha): 65
- Plant response rating: Pigweed, Palmer ([7]; Preemergence, 31 g ai/ha): 100
- Plant response rating: Pigweed, Palmer ([7]; Preemergence, 62 g ai/ha): 100
- Plant response rating: Pigweed, Palmer ([7]; Preemergence, 125 g ai/ha): 100
- Plant response rating: Pigweed, Palmer ([7]; Preemergence, 250 g ai/ha): 100
- Plant response rating: Crabgrass, Brazil ([8]; Postemergence, 8 g ai/ha): 10
- Plant response rating: Crabgrass, Brazil ([8]; Postemergence, 16 g ai/ha): 15
- Plant response rating: Crabgrass, Brazil ([8]; Postemergence, 31 g ai/ha): 25
- Plant response rating: Crabgrass, Brazil ([8]; Postemergence, 62 g ai/ha): 30
- Plant response rating: Crabgrass, Brazil ([8]; Postemergence, 125 g ai/ha): 40
- Plant response rating: Crabgrass, Brazil ([8]; Preemergence, 16 g ai/ha): 90
- Plant response rating: Crabgrass, Brazil ([8]; Preemergence, 31 g ai/ha): 100
- Plant response rating: Crabgrass, Brazil ([8]; Preemergence, 62 g ai/ha): 100
- Plant response rating: Crabgrass, Brazil ([8]; Preemergence, 125 g ai/ha): 100
- Plant response rating: Crabgrass, Brazil ([8]; Preemergence, 250 g ai/ha): 100
- Plant response rating: Dayflower, VA ([9]; Postemergence, 8 g ai/ha): 10
- Plant response rating: Dayflower, VA ([9]; Postemergence, 16 g ai/ha): 10
- Plant response rating: Dayflower, VA ([9]; Postemergence, 31 g ai/ha): 10
- Plant response rating: Dayflower, VA ([9]; Postemergence, 62 g ai/ha): 10
- Plant response rating: Dayflower, VA ([9]; Postemergence, 125 g ai/ha): 15
- Plant response rating: Dayflower, VA ([9]; Preemergence, 16 g ai/ha): 0
- Plant response rating: Dayflower, VA ([9]; Preemergence, 31 g ai/ha): 0
- Plant response rating: Dayflower, VA ([9]; Preemergence, 62 g ai/ha): 50
- Plant response rating: Dayflower, VA ([9]; Preemergence, 125 g ai/ha): 50
- Plant response rating: Dayflower, VA ([9]; Preemergence, 250 g ai/ha): 50
- Plant response rating: Goosegrass ([10]; 16 g ai/ha): 95
- Plant response rating: Goosegrass ([10]; 31 g ai/ha): 100
- Plant response rating: Goosegrass ([10]; 62 g ai/ha): 100
- Plant response rating: Goosegrass ([10]; 125 g ai/ha): 100
- Plant response rating: Goosegrass ([10]; 250 g ai/ha): 100
- Plant response rating: Ryegrass, Italian ([11]; Postemergence, 8 g ai/ha): 0
- Plant response rating: Ryegrass, Italian ([11]; Postemergence, 16 g ai/ha): 10
- Plant response rating: Ryegrass, Italian ([11]; Postemergence, 31 g ai/ha): 15
- Plant response rating: Ryegrass, Italian ([11]; Postemergence, 62 g ai/ha): 20
- Plant response rating: Ryegrass, Italian ([11]; Postemergence, 125 g ai/ha): 35
- Plant response rating: Ryegrass, Italian ([11]; Preemergence, 16 g ai/ha): 0
- Plant response rating: Ryegrass, Italian ([11]; Preemergence, 31 g ai/ha): 35
- Plant response rating: Ryegrass, Italian ([11]; Preemergence, 62 g ai/ha): 35
- Plant response rating: Ryegrass, Italian ([11]; Preemergence, 125 g ai/ha): 90
- Plant response rating: Ryegrass, Italian ([11]; Preemergence, 250 g ai/ha): 98
- Plant response rating: Waterhemp ([12]; Postemergence, 8 g ai/ha): 30
- Plant response rating: Waterhemp ([12]; Postemergence, 16 g ai/ha): 50
- Plant response rating: Waterhemp ([12]; Postemergence, 31 g ai/ha): 65
- Plant response rating: Waterhemp ([12]; Postemergence, 62 g ai/ha): 75
- Plant response rating: Waterhemp ([12]; Postemergence, 125 g ai/ha): 75
- Plant response rating: Waterhemp ([12]; Preemergence, 16 g ai/ha): 95
- Plant response rating: Waterhemp ([12]; Preemergence, 31 g ai/ha): 98
- Plant response rating: Waterhemp ([12]; Preemergence, 62 g ai/ha): 100
- Plant response rating: Waterhemp ([12]; Preemergence, 125 g ai/ha): 100
- Plant response rating: Waterhemp ([12]; Preemergence, 250 g ai/ha): 100
